Experimental data as given in ChEMBL document CHEMBL3885881, “DrugMatrix”.

Species: Rattus norvegicus
Assay: DrugMatrix - Regimen: Daily Repeat
Format: toxicity, organism-based, Sprague-Dawley
Design: regimen Daily Repeat, gender Male, age 6-8 weeks
Conditions: in vivo, iv, […], vehicle 100 % SALINE; for MONOCYTE / NEUTROPHIL / NUCLEATED RED BLOOD CELLS / ABSOLUTE BASOPHIL / ABSOLUTE EOSINOPHIL / ABSOLUTE LYMPHOCYTE / ABSOLUTE MONOCYTE / ABSOLUTE SEGMENTED NEUTROPHIL / BASOPHIL / EOSINOPHIL / ERYTHROCYTE COUNT / HEMATOCRIT / HEMOGLOBIN / LEUKOCYTE COUNT / LYMPHOCYTE / MEAN CORPUSCULAR HEMOGLOBIN / MEAN CORPUSCULAR HEMOGLOBIN CONCENTRATION / MEAN CORPUSCULAR VOLUME: tissue Blood; for ALANINE AMINOTRANSFERASE / ALKALINE PHOSPHATASE / ASPARTATE AMINOTRANSFERASE / BLOOD UREA NITROGEN / CARBON DIOXIDE / CHOLESTEROL / CREATINE PHOSPHOKINASE / CREATININE / GLUCOSE / LACTATE DEHYDROGENASE / LIPASE / SODIUM / TOTAL BILIRUBIN / TOTAL PROTEIN / URIC ACID: tissue Plasma
[1] = 72 h, dose 2.7 mg/Kg, dose level High, time 3 day
[2] = 72 h, dose 0.27 mg/Kg, dose level Low, time 3 day
[3] = 120 h, dose 0.27 mg/Kg, dose level Low, time 5 day
[4] = 120 h, dose 2.7 mg/Kg, dose level High, time 5 day

COc1cccc2c1C(=O)c1c(O)c3c(c(O)c1C2=O)C[C@@](O)(C(=O)CO)C[C@@H]3O[C@H]1C[C@H](N)[C@@H](O)[C@H](C)O1 [EPIRUBICIN]
MONOCYTE [1]: 0.67%
NEUTROPHIL [1]: 8.67%
NUCLEATED RED BLOOD CELLS [1]: 0 /100WBC
ALANINE AMINOTRANSFERASE [2]: 37 u/L
ALKALINE PHOSPHATASE [2]: 440.33 u/L
ASPARTATE AMINOTRANSFERASE [2]: 76.33 u/L
BLOOD UREA NITROGEN [2]: 17 mg/dL
CARBON DIOXIDE [2]: 25 mmol/L
CHOLESTEROL [2]: 79.67 mg/dL
CREATINE PHOSPHOKINASE [2]: 317.67 u/L
CREATININE [2]: 0.15 mg/dL
GLUCOSE [2]: 161.33 mg/dL
LACTATE DEHYDROGENASE [2]: 433 u/L
LIPASE [2]: 9.33 u/L
SODIUM [2]: 143.3 MEQ/L
TOTAL BILIRUBIN [2]: 0.2 mg/dL
TOTAL PROTEIN [2]: 5.67 G/DL
URIC ACID [2]: 1.5 mg/dL
ALANINE AMINOTRANSFERASE [1]: 33 u/L
ALKALINE PHOSPHATASE [1]: 297.33 u/L
ASPARTATE AMINOTRANSFERASE [1]: 83.67 u/L
BLOOD UREA NITROGEN [1]: 13 mg/dL
CARBON DIOXIDE [1]: 26.33 mmol/L
CHOLESTEROL [1]: 96.33 mg/dL
CREATINE PHOSPHOKINASE [1]: 442.33 u/L
CREATININE [1]: 0.12 mg/dL
GLUCOSE [1]: 146.33 mg/dL
LACTATE DEHYDROGENASE [1]: 682.67 u/L
LIPASE [1]: 10 u/L
SODIUM [1]: 143.33 MEQ/L
TOTAL BILIRUBIN [1]: 0.0667 mg/dL
TOTAL PROTEIN [1]: 5.73 G/DL
URIC ACID [1]: 1.43 mg/dL
ABSOLUTE BASOPHIL [3]: 0 CELLS/uL
ABSOLUTE EOSINOPHIL [3]: 0 CELLS/uL
ABSOLUTE LYMPHOCYTE [3]: 12433.67 CELLS/uL
ABSOLUTE MONOCYTE [3]: 229 CELLS/uL
ABSOLUTE SEGMENTED NEUTROPHIL [3]: 504 CELLS/uL
BASOPHIL [3]: 0%
EOSINOPHIL [3]: 0%
ERYTHROCYTE COUNT [3]: 5.91 x10E6/uL
HEMATOCRIT [3]: 37.27%
HEMOGLOBIN [3]: 14.33 G/DL
LEUKOCYTE COUNT [3]: 13.17 x10E3/uL
LYMPHOCYTE [3]: 94.33%
MEAN CORPUSCULAR HEMOGLOBIN [3]: 24.27 pg
MEAN CORPUSCULAR HEMOGLOBIN CONCENTRATION [3]: 38.5 G/DL
MEAN CORPUSCULAR VOLUME [3]: 63.07 fL
MONOCYTE [3]: 1.67%
NEUTROPHIL [3]: 4%
NUCLEATED RED BLOOD CELLS [3]: 0 /100WBC
ABSOLUTE BASOPHIL [4]: 0 CELLS/uL
ABSOLUTE EOSINOPHIL [4]: 0 CELLS/uL
ABSOLUTE LYMPHOCYTE [4]: 1316 CELLS/uL
ABSOLUTE MONOCYTE [4]: 12 CELLS/uL
ABSOLUTE SEGMENTED NEUTROPHIL [4]: 72 CELLS/uL
BASOPHIL [4]: 0%
EOSINOPHIL [4]: 0%
ERYTHROCYTE COUNT [4]: 6.07 x10E6/uL
HEMATOCRIT [4]: 37.4%
HEMOGLOBIN [4]: 15.17 G/DL
LEUKOCYTE COUNT [4]: 1.4 x10E3/uL
LYMPHOCYTE [4]: 94%
MEAN CORPUSCULAR HEMOGLOBIN [4]: 25.13 pg
MEAN CORPUSCULAR HEMOGLOBIN CONCENTRATION [4]: 40.6 G/DL
MEAN CORPUSCULAR VOLUME [4]: 61.83 fL
MONOCYTE [4]: 1%
NEUTROPHIL [4]: 5%
NUCLEATED RED BLOOD CELLS [4]: 0 /100WBC
ALANINE AMINOTRANSFERASE [3]: 57.67 u/L
ALKALINE PHOSPHATASE [3]: 390.33 u/L
ASPARTATE AMINOTRANSFERASE [3]: 107.33 u/L
BLOOD UREA NITROGEN [3]: 16.67 mg/dL
CARBON DIOXIDE [3]: 25 mmol/L
CHOLESTEROL [3]: 75 mg/dL
CREATINE PHOSPHOKINASE [3]: 510.67 u/L
CREATININE [3]: 0.16 mg/dL
GLUCOSE [3]: 152 mg/dL
LACTATE DEHYDROGENASE [3]: 825.67 u/L
LIPASE [3]: 9 u/L
SODIUM [3]: 144.37 MEQ/L
TOTAL BILIRUBIN [3]: 0.17 mg/dL
TOTAL PROTEIN [3]: 5.9 G/DL
URIC ACID [3]: 1.63 mg/dL
ALANINE AMINOTRANSFERASE [4]: 29 u/L
ALKALINE PHOSPHATASE [4]: 172 u/L
ASPARTATE AMINOTRANSFERASE [4]: 79.33 u/L
BLOOD UREA NITROGEN [4]: 20.67 mg/dL
CARBON DIOXIDE [4]: 28 mmol/L
CHOLESTEROL [4]: 93 mg/dL
CREATINE PHOSPHOKINASE [4]: 725.67 u/L
CREATININE [4]: 0.12 mg/dL
GLUCOSE [4]: 151.33 mg/dL
LACTATE DEHYDROGENASE [4]: 374.33 u/L
LIPASE [4]: 8.67 u/L
SODIUM [4]: 141.7 MEQ/L
TOTAL BILIRUBIN [4]: 0.0667 mg/dL
TOTAL PROTEIN [4]: 5.67 G/DL
URIC ACID [4]: 1.37 mg/dL
